Results published in article PMC8401948, “Improving the Solubility and Oral Bioavailability of a Novel Aromatic Aldehyde Antisickling Agent (PP10) for the Treatment of Sickle Cell Disease” (Pharmaceutics, 2021).
Values after ≈ are worked out from the molar mass of the structure shown.

What was measured:
[1] = system: sickle red blood cell (SS blood); assay: In vitro antisickling study with sickle whole blood; type: cell-based, human; conditions: for antisickling effect (RBC sickling inhibition): SS blood HCT 20%, 0.5, 1 and 2 mM, hypoxia 2.5% O2
Procedure: (§1) The parent PP10, its acid metabolite PP10-acid, and the sodium salt PP10-NaSalt were tested using homozygous sickle cell (SS) blood for their pharmacologic activities. Leftover blood samples from individuals with SS were obtained (based on an approved IRB protocol at the Children’s Hospital of Philadelphia, with informed consent) and used for in vitro antisickling, Hb modification, and oxygen equilibrium studies following methods previously published by our group. For the antisickling study, SS blood samples (hematocrit 20%) were incubated under air in the absence or presence of PP10, PP10-acid, or PP10-NaSalt (0.5 mM, 1 mM, and 2 mM) at 37 °C for 1 h, followed by incubation of the mixture under hypoxic conditions (2.5% O2/97.5% N2) at 37 °C for 2 h. Aliquots were fixed with 2% glutaraldehyde solution in sodium cacodylate buffer, pH 7.4, without exposure to air, and then subjected to microscopic morphological analysis of bright field images (at 40× magnification) of single layer cells on an Olympus BX40 microscope fitted with an Infinity 2 camera and coupled with Image Capture cellSens software (Olympus, Tokyo, Japan).

HbS = molecular target: T1, HbS (Homo sapiens, UniProt P68871+P69905, E7V); assay: Hb modification (Hb adduct formation), cation-exchange HPLC; type: cell-based; conditions: SS blood, 0.5, 1 and 2 mM
T1 construct: tested using homozygous sickle cell (SS) blood for their pharmacologic activities; from tissue; host or cells: Whole blood (red blood cells) from individuals with homozygous sickle cell disease
Procedure: as §1, with “Aliquots were fixed with 2% glutaraldehyde solution in sodium cacodylate buffer, pH 7.4, without exposure to air, and then subjected to microscopic morphological analysis of bright field images (at 40× magnification) of single layer cells on an Olympus BX40 microscope fitted with an Infinity 2 camera and coupled with Image Capture cellSens software (Olympus, Tokyo, Japan).” left out
(§2) Residual samples from the above study were washed in phosphate-buffered saline and hemolyzed by hypotonic lysis in deionized water for the oxygen equilibrium and Hb modification (Hb adduct formation) studies. […] The areas of new peaks, representing HbS adducts, were obtained, calculated as percentages of total Hb area, and reported as levels of modified Hb or Hb adduct. […] Degree of Hb O2 affinity shift (ΔP50) was expressed as percentage of control DMSO-treated samples.

[2] = set-up: method as in PMID 33205981; conditions: in vitro, whole blood; cited from earlier work
[3] = Pharmacokinetics study in rats, whole blood PP10-acid; type: in vivo, Sprague-Dawley rats; conditions: rat, all analyses
Procedure: A single-dose one-period parallel design was utilized to investigate the pharmacokinetics of pure PP10, the polymeric-PP10 binary systems with PVP-K90 and HP-β-CD, and the PP10-TPGS aqueous micelle solution formulation. The study was conducted according to the guidelines of Good Clinical Practice (GCP), the International Conference on Harmonization (ICH), and the European Medicines Agency (EMA). The protocol for the animal study received prior approval from the Research Ethics Committee, Faculty of Pharmacy, King Abdulaziz University, Saudi Arabia (reference no. PH-1442-68) in 04/03/2021.
Male Sprague-Dawley rats (300–350 g) were used. The animals were maintained on a 12 h light/dark cycle (lights-on at 7 a.m.) with free access to food and water in a temperature-controlled room. After 7 days of acclimatization, animals were classified into four groups (n = 6). Group I was administered oral drug tablets containing pure drug (positive control). Group II was given oral drug tablets containing PP10-PVP K90 binary system. […]
The concentration of the parent PP10 and PP10-acid metabolite in the whole blood samples were determined using a gradient elution HPLC chromatographic condition using a Waters Symmetry Shield C18 (Waters, MA, USA), 5 µm 3.9 × 150 mm column, and a Waters 2998 PDA detector (Waters, MA, USA) with detection wavelength adjusted to 274 nm. […]

[4] = Equilibrium aqueous solubility of PP10 and polymeric-PP10 binary systems; type: physicochemical; conditions: distilled water, 25 °C
Procedure: The equilibrium solubility of pure PP10 and the three polymeric drug binary systems with PVP-K90, Eudragit L100-55, or HP-β-CD were studied to investigate the effect of the complexation on the aqueous solubility of PP10. An excess quantity of the pure drug or the prepared binary systems was added to 5 mL of distilled water in a screw-capped vial and transferred to a thermostatically controlled shaking water bath (Model 1031; GFL Corporation, Burgwedel, Germany) at 25 ± 0.5 °C for 72 h. […] Drug stock solution was prepared in methanol and different standard drug solutions in the range of 2–10 µg/mL were prepared. The absorbance of the prepared standard solutions was measured, resulting in a correlation coefficient (R^2) of 0.9986.

[5] = Stability of PP10 at different pHs (HPLC, MASS scan); type: physicochemical
Procedure: The parent PP10 could hydrolyze into the corresponding PP10-acid either chemically (acid/base hydrolysis) or by the action of esterase in the blood, which could affect the PK and/or PD properties. This potential hydrolysis behavior was studied by investigating the stability of the parent methylester compound in buffer at different pHs, and in blood. To examine potential chemical degradation, a solution of PP10 (2 mg/mL) was prepared in methanol. Known volume (1 mL) of this methanol solution was diluted with a definite volume (20 mL) of buffer at pH 1.2, 5.5, or 7.4, corresponding to the gastric pH, the pH of the proximal small intestine, and the pH of the terminal ileum or physiological body fluids, respectively. Methanolic drug solution of the same concentration was also prepared as a reference. The different pH mixtures were incubated in a water bath at 37 °C overnight. The high-performance liquid chromatography (HPLC) chromatogram of the parent compound (methanolic drug solution) was compared with the corresponding drug buffer samples. The molecular weight of degraded product(s) was investigated using MASS scan. Details of the apparatus and conditions are described below.

Hb = Hb oxygen equilibrium study (Hemox Analyzer, P50 shift); type: cell-based, human; conditions: 2 mM, SS blood
Procedure: as §1, with “Aliquots were fixed with 2% glutaraldehyde solution in sodium cacodylate buffer, pH 7.4, without exposure to air, and then subjected to microscopic morphological analysis of bright field images (at 40× magnification) of single layer cells on an Olympus BX40 microscope fitted with an Infinity 2 camera and coupled with Image Capture cellSens software (Olympus, Tokyo, Japan).” left out
as §2

Compound	inhibition at 2000 µM ([1]; Homo sapiens, Erythrocyte, 2 mM, SS blood, read-out: RBC sickling inhibition more than PP10-acid) [%]	antisickling effect (RBC sickling inhibition) [1]	Hb adduct formation (HbS)	parent PP10 hydrolyzed into the PP10-acid metabolite [2]	parent PP10 compound in whole blood after dosing [3]	solubility at 72 h [4] [µg/mL]	stability (hydrolysis to PP10-acid) ([5]; buffer pH 1.2, 37 °C overnight)	stability (hydrolysis to PP10-acid) ([5]; buffer pH 5.5, 37 °C overnight)	stability (hydrolysis to PP10-acid) ([5]; buffer pH 7.4, 37 °C overnight)	stability ([5]; straight methanol, 37 °C overnight)	increase of Hb oxygen affinity compared with the ester (PP10) (Hb)
COC(=O)c1cccc(COc2cccc(O)c2C=O)n1 [PP10, Methyl 6-((2-formyl-3-hydroxyphenoxy)methyl) picolinate]	36	dose-dependent antisickling effect	highest Hb adduct formation	about 20%	No parent PP10 compound (PP10) was observed in any of the analyses	12 ± 2 (≈ 41.8 µM)	most significant degradation	degrades into the acid form	degrades into the acid form	stable	–
O=Cc1c(O)cccc1OCc1cccc(C(=O)[O-])n1.[Na+] [PP10-NaSalt]	–	almost no activity	significantly less adduct formation	–	–	–	–	–	–	–	–
O=Cc1c(O)cccc1OCc1cccc(C(=O)O)n1 [PP10-acid]	–	dose-dependent antisickling effect	–	–	–	–	–	–	–	–	about 30%
